# Data taken from patent publication US7090872B2, “Antioxidant, skin preparation for external use, cosmetic and food” (Nichirei Biosciences Inc., priority 2002, dated 2006).
# Assay: Antioxidative activity measurement using linoleic acid (ferric thiocyanate method)
# Settings: 0.023 mg of vitamin C (amount contained in 0.4 mg of the solid); control = 100%
# Method: Next, the antioxidative activity of the obtained extract was measured by antioxidative activity measurement using linoleic acid (ferric thiocyanate method).
# Specifically, a mixture of 0.4 mg of the acerola seed extract, 2 ml of 99.5% ethanol, and 2 ml of distilled water was mixed with a reaction liquid composed of 2 ml of 2.5% (w/v) linoleic acid (99.5% ethanol solution) and 4 ml of a 0.05 M phosphate buffer (pH 7.0), and placed in a brown threaded bottle, to thereby prepare 10 ml of a test liquid. On the other hand, test liquids as positive controls were prepared in the same way using α-tocopherol or BHA in place of the acerola seed extract at the same content in the reaction liquid. […] Samples were taken out at intervals, and measured by the following methods. […]
# First, to a mixture of 0.1 ml of the sample, 9.7 ml of 75% ethanol, and 0.1 ml of a 30% aqueous solution of ammonium rhodanide, 0.1 ml of 2×10^−2 M ferrous chloride (3.5% hydrochloric acid solution) was added, and exactly 3 minutes later, the absorbance at 500 nm was measured. The same measurement was made with the blanks, and Δabsorbance was taken according to the following formula: Δ absorbance=(absorbance of main sample)−(absorbance of blank). The absorbance increases with oxidation of the sample, and after reaching the maximum, decreases with consumption of the sample to be oxidized. […]
structure (smiles),measurement,value
O=C1O[C@H]([C@@H](O)CO)C(O)=C1O [vitamin C],degree of oxidation on day 7,115.8%
